Experiment: Antagonist activity at CCR9 receptor (unknown origin) by serum chemotaxis assay

CC(C)(C)c1ccc(S(=O)(=O)Nc2ccc(Cl)cc2-c2nccnc2NCCO)cc1
IC50: 0.17 µM
